In series [1] the target is T1, HisKIX (His-tagged CBP KIX domain) (Mus musculus, UniProt P45481).
T1 construct: The CBP KIX-coding region (residues 586 to 672) of pGEX-KT KIX 10-672; made in house; host or cells: E. coli BL21(DE3) pArg
Put plainly: Equilibrium fluorescence polarization, HisKIX binding. As to conditions: 25° C. (In general: In fluorescence polarisation assays a small probe gives low polarisation when free and higher when bound to something large.)

For series [2], the target named is T2, Calmodulin (Homo sapiens, UniProt P0DP23).
T2 construct: purchased Sigma
Put plainly: Fluorescence polarization specificity, calmodulin. Format: binding. The conditions noted are these: calmodulin as target protein; read-out: Kd CalM. An excerpt: (§1) Given the myriad protein surfaces present in the cell, the utility of molecules that recognize protein surfaces will depend on their ability to interact selectively with the desired protein.

Series [3] has as its target T3, CBP KIX K662A (Mus musculus, UniProt P45481, K662A).
T3 construct: made in house; host or cells: E. coli BL21(DE3) pArg
Put plainly: Equilibrium fluorescence polarization, CBP KIX variant K662A. It counts as binding. As to conditions: 25° C.

In series [4] the target is T4, CBP KIX I660A (Mus musculus, UniProt P45481, I660A).
T4 construct: made in house; host or cells: E. coli BL21(DE3) pArg
Put plainly: Equilibrium fluorescence polarization, CBP KIX variant I660A. The conditions noted are these: 25° C. It counts as binding.

Series [5] concerns the target T5, CBP KIX L603A (Mus musculus, UniProt P45481, L603A).
T5 construct: made in house; host or cells: E. coli BL21(DE3) pArg
As to the kind of experiment: Equilibrium fluorescence polarization, CBP KIX variant L603A. Format: binding. As to conditions: 25° C.

The target of series [6] is T6, CBP KIX Y658F (Mus musculus, UniProt P45481, Y658F).
T6 construct: made in house; host or cells: E. coli BL21(DE3) pArg
Put plainly: Equilibrium fluorescence polarization, CBP KIX variant Y658F. Format: binding. As to conditions: 25° C.

The target in series [7] is T7, CBP KIX Y658A (Mus musculus, UniProt P45481, Y658A).
T7 construct: made in house; host or cells: E. coli BL21(DE3) pArg
As to the kind of experiment: Equilibrium fluorescence polarization, CBP KIX variant Y658A. As to conditions: 25° C. Format: binding.

The target in series [8] is T8, CBP KIX Q661A (Mus musculus, UniProt P45481, Q661A).
T8 construct: made in house; host or cells: E. coli BL21(DE3) pArg
Put plainly: Equilibrium fluorescence polarization, CBP KIX variant Q661A. It counts as binding. The conditions noted are these: 25° C.

Series [9] deals with T9, CBP KIX LL652-3AA (Mus musculus, UniProt P45481, L652A/L653A).
T9 construct: made in house; host or cells: E. coli BL21(DE3) pArg
As to the kind of experiment: Equilibrium fluorescence polarization, CBP KIX variant LL652-3AA. It counts as binding. The conditions noted are these: 25° C.

Series [10] concerns the target T10, CBP KIX I657A (Mus musculus, UniProt P45481, I657A).
T10 construct: made in house; host or cells: E. coli BL21(DE3) pArg
As to the kind of experiment: Equilibrium fluorescence polarization, CBP KIX variant I657A. Format: binding. The conditions noted are these: 25° C.

The target of series [11] is T11, Carbonic anhydrase II (Homo sapiens, UniProt P00918).
T11 construct: purchased Sigma
Put plainly: Fluorescence polarization specificity, carbonic anhydrase II. As to conditions: carbonic anhydrase II as target protein; read-out: Kd CA. Format: binding.
Excerpt: as §1

Series [12] concerns the target T12, CBP KIX wild type (Mus musculus, UniProt P45481).
T12 construct: made in house; host or cells: E. coli BL21(DE3) pArg
As to the kind of experiment: Equilibrium fluorescence polarization, wild type CBP KIX. Format: binding. The conditions noted are these: 25° C.

Series [13] addresses T13, CBP KIX Y650A (Mus musculus, UniProt P45481, Y650A).
T13 construct: made in house; host or cells: E. coli BL21(DE3) pArg
Put plainly: Equilibrium fluorescence polarization, CBP KIX variant Y650A. It counts as binding. As to conditions: 25° C.

Series [14] concerns the target T14, CBP KIX K606A (Mus musculus, UniProt P45481, K606A).
T14 construct: made in house; host or cells: E. coli BL21(DE3) pArg
As to the kind of experiment: Equilibrium fluorescence polarization, CBP KIX variant K606A. Format: binding. As to conditions: 25° C.

Series [15] concerns the target T15, CBP KIX E655A (Mus musculus, UniProt P45481, E655A).
T15 construct: made in house; host or cells: E. coli BL21(DE3) pArg
Put plainly: Equilibrium fluorescence polarization, CBP KIX variant E655A. As to conditions: 25° C. It counts as binding.

Series [16] deals with Bcl-2 (Homo sapiens, UniProt P10415). Put plainly: Bcl-2 binding by fluorescence emission of fluorescein-labeled peptide. The conditions noted are these: read-out: Kd for binding to Bcl-2, 4° C., PBS.
Series [17] deals with T2, Calmodulin. As to the kind of experiment: Calmodulin binding by fluorescence emission.
The nature of series [18]: Circular dichroism thermal denaturation. Format: physicochemical. As to conditions: far UV circular dichroism at 222 nm. Here is the method:
Spectra were acquired in 0.5×PBS at 25° C. using a Aviv Model 62DS spectrometer. […] Each data set represents the average of 10 scans. Spectra were background corrected but were not smoothed. (b) Temperature dependence of the CD spectrum of pP53-05. ΘMRE is in units of deg·cm^2·dmol^−1.
Circular dichroism spectra were recorded in PBS on an Aviv 202 CD Spectrometer and were background corrected but not smoothed. Wavelength scans were performed at 4° C. between 200 and 260 nm at 1 nm intervals with a recording time of five seconds at each interval. Bak (72-94), 4099, 4100, 4101, 4102 were used at concentrations of 0.028 mM, 0.0069 mM, 0.0119 mM, 0.014 mM and 0.016 mM respectively. Thermal denaturation curves were measured at 222 nm between 4-98° C. with 2° C. steps and one minute equilibration at each temperature. Peptides were used at the highest concentrations used for the wavelength scans described above. Mean residue elliptcity and percent helicity were calculated from the value at 222 nm after background correction.

Series [19] has as its target T11, Carbonic anhydrase II. Put plainly: Carbonic anhydrase II binding by fluorescence emission. The conditions noted are these: PBS.
Series [20] addresses Akt kinase (PKB) (Homo sapiens, UniProt P31749). As to the kind of experiment: Phosphotransferase assay, PKB. It counts as biochemical. The conditions noted are these: 1-K252a up to 100 nM; 1 up to 5 μM.
Series [21] concerns Ca++/calmodulin kinase II (CamKII). As to the kind of experiment: Phosphotransferase assay, CamKII. It counts as biochemical. The conditions noted are these: 1-K252a up to 100 nM; 1 up to 5 μM.
The target in series [22] is cGMP-dependent protein kinase (PKG). As to the kind of experiment: Phosphotransferase assay, PKG. It counts as biochemical.
The target of series [23] is PKA (Homo sapiens, UniProt P17612). Put plainly: PKA phosphotransferase assay, streptavidin-matrix capture of [32P]-phosphorylated substrates. Format: biochemical.
Series [24] addresses protein kinase Cα (PKC-α) (Homo sapiens, UniProt P17252). As to the kind of experiment: Phosphotransferase assay, PKC-α. It counts as biochemical. The conditions noted are these: 1-K252a up to 100 nM; 1 up to 5 μM.

Three molecules from US20110028686A1, “Protein binding miniature proteins” (Yale University, priority 2000, published 2011) can be followed below.

Values joined by “and” are separate entries in the source; they are usually repeats but may differ in a detail not shown here. Equal entries are not always repeated. Where two headings read alike, the source gives them in different places. Ends that are not written are not given here. Peptide text beside a SMILES is read from it. * marks the point of attachment. X1 = C[C@]12O[C@H](C[C@]1(O)C(=O)NCCCCCCCCNC(=O)C*)n1c3ccccc3c3c4c(c5c6ccccc6n2c5c31)CNC4=O

T7 sequence (P45481 586-665 Y658A limits assumed): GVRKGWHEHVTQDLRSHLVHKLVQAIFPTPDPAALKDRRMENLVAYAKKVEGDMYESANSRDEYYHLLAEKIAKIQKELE
T1 sequence (P45481 586-672): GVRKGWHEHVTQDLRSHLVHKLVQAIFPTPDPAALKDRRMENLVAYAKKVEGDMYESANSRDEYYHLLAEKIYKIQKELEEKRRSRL
T8 sequence (P45481 586-665 Q661A limits assumed): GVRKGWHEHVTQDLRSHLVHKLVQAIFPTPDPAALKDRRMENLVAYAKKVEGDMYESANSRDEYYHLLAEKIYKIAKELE
T9 sequence (P45481 586-665 L652A/L653A): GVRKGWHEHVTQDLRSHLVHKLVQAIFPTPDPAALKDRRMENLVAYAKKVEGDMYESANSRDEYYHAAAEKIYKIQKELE
Chain of Akt kinase (PKB) (P31749 whole entry, species assumed): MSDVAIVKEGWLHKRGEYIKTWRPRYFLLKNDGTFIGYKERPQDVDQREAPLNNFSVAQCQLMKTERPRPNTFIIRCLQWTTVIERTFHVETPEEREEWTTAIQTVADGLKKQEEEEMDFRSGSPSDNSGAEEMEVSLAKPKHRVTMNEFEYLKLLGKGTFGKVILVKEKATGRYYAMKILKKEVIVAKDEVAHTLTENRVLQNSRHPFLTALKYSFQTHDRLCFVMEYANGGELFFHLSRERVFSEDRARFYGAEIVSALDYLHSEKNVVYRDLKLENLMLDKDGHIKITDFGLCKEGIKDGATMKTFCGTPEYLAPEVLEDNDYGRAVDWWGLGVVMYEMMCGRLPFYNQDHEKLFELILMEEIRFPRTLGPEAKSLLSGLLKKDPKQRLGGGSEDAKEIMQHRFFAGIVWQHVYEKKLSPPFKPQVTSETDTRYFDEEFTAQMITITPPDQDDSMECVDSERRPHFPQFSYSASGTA
T14 sequence (P45481 586-665 K606A limits assumed): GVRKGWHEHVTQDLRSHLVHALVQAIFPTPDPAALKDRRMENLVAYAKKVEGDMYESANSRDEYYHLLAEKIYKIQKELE
T3 sequence (P45481 586-665 K662A limits assumed): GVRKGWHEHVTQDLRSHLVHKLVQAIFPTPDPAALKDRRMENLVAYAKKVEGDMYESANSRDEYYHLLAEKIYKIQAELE
T5 sequence (P45481 586-665 L603A limits assumed): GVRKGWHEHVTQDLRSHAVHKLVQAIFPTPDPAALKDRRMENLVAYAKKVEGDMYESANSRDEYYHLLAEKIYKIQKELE
T10 sequence (P45481 586-665 I657A limits assumed): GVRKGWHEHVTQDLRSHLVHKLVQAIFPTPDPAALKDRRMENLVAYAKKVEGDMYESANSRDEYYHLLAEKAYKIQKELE
T4 sequence (P45481 586-665 I660A limits assumed): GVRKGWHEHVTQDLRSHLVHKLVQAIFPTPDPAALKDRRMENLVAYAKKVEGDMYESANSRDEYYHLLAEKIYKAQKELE
T6 sequence (P45481 586-665 Y658F limits assumed): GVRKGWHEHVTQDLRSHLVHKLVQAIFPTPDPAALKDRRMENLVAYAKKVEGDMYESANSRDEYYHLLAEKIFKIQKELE
T15 sequence (P45481 586-665 E655A limits assumed): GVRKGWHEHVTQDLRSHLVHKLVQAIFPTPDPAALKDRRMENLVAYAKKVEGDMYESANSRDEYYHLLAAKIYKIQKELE
T12 sequence (P45481 586-665 limits assumed): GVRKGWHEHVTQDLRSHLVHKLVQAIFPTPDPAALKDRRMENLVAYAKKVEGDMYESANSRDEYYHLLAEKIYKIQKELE
T13 sequence (P45481 586-665 Y650A limits assumed): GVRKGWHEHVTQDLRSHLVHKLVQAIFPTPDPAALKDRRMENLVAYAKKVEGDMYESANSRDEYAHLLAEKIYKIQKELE
Chain of Bcl-2 (P10415 1-205): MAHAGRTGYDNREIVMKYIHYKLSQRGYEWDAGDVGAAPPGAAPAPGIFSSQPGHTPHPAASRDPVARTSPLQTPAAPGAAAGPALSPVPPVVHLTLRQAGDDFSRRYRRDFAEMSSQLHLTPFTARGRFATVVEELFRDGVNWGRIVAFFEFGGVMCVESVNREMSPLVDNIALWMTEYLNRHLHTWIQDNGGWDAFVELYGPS

In the case of `CC[C@H](C)[C@H](NC(=O)[C@H](Cc1ccc(O)cc1)NC(=O)[C@H](Cc1ccccc1)NC(=O)[C@H](Cc1ccccc1)NC(=O)[C@H](COP(=O)(O)O)NC(=O)[C@H](CC(C)C)NC(=O)[C@H](CCCNC(=N)N)NC(=O)[C@H](CCCNC(=N)N)NC(=O)[C@@H](NC(=O)[C@@H]1CCCN1C(=O)[C@H](C)NC(=O)[C@H](CC(=O)O)NC(=O)[C@H](CC(=O)O)NC(=O)CNC(=O)[C@@H]1CCCN1C(=O)[C@H](Cc1ccc(O)cc1)NC(=O)[C@@H](NC(=O)[C@@H]1CCCN1C(=O)[C@H](CCC(N)=O)NC(=O)[C@H](CO)NC(=O)[C@@H]1CCCN1C(=O)CN)[C@@H](C)O)C(C)C)C(=O)N[C@@H](CC(C)C)C(=O)N[C@@H](CC(C)C)C(=O)N[C@@H](CC(=O)O)C(=O)N[C@@H](CC(C)C)C(=O)N[C@@H](Cc1ccc(O)cc1)C(=O)N[C@@H](CC(C)C)C(=O)N[C@@H](CC(=O)O)C(=O)N[C@@H](C)C(=O)N1CCC[C@H]1C(=O)NCC(=O)N[C@H](C(=O)N[C@@H](CSCC(=O)Nc1ccc2c(c1)C(=O)OC21c2ccc(O)cc2Oc2cc(O)ccc21)C(N)=O)C(C)C` [PPKID4], the equilibrium dissociation constant (Kd) in series [1] (fluorescein-labeled phosphopeptide, read-out: Kd HisKIX, phosphorylated peptide (P)) was 0.515 ± 0.044 µM; in series [1] (fluorescein-labeled unphosphorylated peptide, read-out: Kd HisKIX, unphosphorylated peptide (U)), 12.1 ± 2.4 µM; in series [2], 51 µM and 52 µM; in [3], 3.9 ± 0.3 µM; in [4], 1.1 ± 0.1 µM; in series [5], 3.4 ± 0.5 µM. In addition, the Kd in series [6] was 4.1 ± 0.2 µM; in [7] it was 4.1 µM and 3.9 µM; in series [8] it was 1.1 ± 0.1 µM; in series [9], 2.9 ± 0.2 µM; in [10], 2.7 ± 0.1 µM; in series [11], 106 ± 12 µM. The equilibrium dissociation constant (Kd) is 0.61 ± 0.04 µM in series [12], 3 ± 0.3 µM in series [13], 3.1 ± 0.2 µM in series [14] and 0.54 ± 0.05 µM in series [15].

For the molecule `CC[C@H](C)[C@H](NC(=O)[C@H](CC(C)C)NC(=O)[C@H](CC(=O)O)NC(=O)[C@H](CCC(=O)O)NC(=O)[C@@H](NC(=O)[C@@H]1CCCN1C(=O)[C@H](C)NC(=O)[C@H](CC(=O)O)NC(=O)[C@H](CC(=O)O)NC(=O)CNC(=O)[C@@H]1CCCN1C(=O)[C@H](Cc1ccc(O)cc1)NC(=O)[C@@H](NC(=O)[C@@H]1CCCN1C(=O)[C@H](CCC(N)=O)NC(=O)[C@H](CO)NC(=O)[C@@H]1CCCN1C(=O)CN)[C@@H](C)O)C(C)C)C(=O)N[C@@H](CCCNC(=N)N)C(=O)N[C@@H](Cc1ccccc1)C(=O)N[C@H](C(=O)NCC(=O)N[C@@H](CCCNC(=N)N)C(=O)N[C@@H](CC(C)C)C(=O)N[C@@H](CC(C)C)C(=O)N[C@@H](C)C(=O)N[C@@H](Cc1ccc(O)cc1)C(=O)N[C@@H](Cc1ccccc1)C(=O)NCC(=O)N[C@@H](CC(=O)O)C(=O)N[C@H](C(=O)N[C@H](C(=O)N[C@@H](CC(N)=O)C(=O)N[C@@H](CCCNC(=N)N)C(=O)N[C@@H](CCCNC(=N)N)C(N)=O)[C@@H](C)CC)[C@@H](C)O)C(C)C` [p4099] (H-GPSQPTYPGDDAPVEDLIRFVGRLLAYFGDTINRR-NH2), the figures for the Kd in series [16], in [17] and in series [19] were 0.352 ± 0.033 µM, 25 ± 4 µM and 8.6 µM, respectively. In addition, in series [18], the “Tm, cooperative thermal melt” value is “approximately 65 °C”.

“GPSQPTYPGDDAPVEDLIRFYNDLTYYLFVVSGRTGRRNC(X1)IHD-NH2 (C-terminus assumed) [1-K252a]”: in series [20], the “inhibition of PKB phosphotransferase activity” value was “inhibiting no other kinase tested”. Also, the “inhibition of CamKII phosphotransferase activity” value in [21] was “inhibiting no other kinase tested”. For the same molecule, half-maximal inhibition in series [22] (IC50) required 0.679 ± 0.202 µM. The “fold more potent than 1 alone (PKA)” value in [23] is 30 fold. The “inhibition of PKC-α phosphotransferase activity” value in series [24] is reported as “inhibiting no other kinase tested”.

One may read the Kd as the concentration at which binding is half-saturated. By IC50 is commonly meant the concentration at which inhibition is half-maximal. Lower therefore signals higher potency.
